Values of other authors, collected in patent US20060251637A1, “Oil-in-water type emulsion containing coenzyme q10 and process for producting the same” (priority 2003, published 2006).

Conditions: at 20° C.; decreases with decreasing temperature

COC1=C(OC)C(=O)C(C/C=C(\C)CC/C=C(\C)CC/C=C(\C)CC/C=C(\C)CC/C=C(\C)CC/C=C(\C)CC/C=C(\C)CC/C=C(\C)CC/C=C(\C)CCC=C(C)C)=C(C)C1=O [coenzyme Q10]
Lipid solubility of coenzyme Q10: approximately 1%
